Measured values published in publication PMC4457528, “Identification of Novel Small Molecule Inhibitors of Oncogenic RET Kinase” (PLoS ONE, 2015).
Like-named read-outs stand apart in the source and are kept apart here.

What was measured:
Assay in all cases: KinomeScan kinase panel, single concentration 10 µM
Format in all cases: binding
KinomeScan kinase panel [1] = target: T1, KinomeScan kinase panel (Homo sapiens, UniProt Q05655); settings: 10 µM, read-out: score (%)
T1 construct: purchased DiscoveRx (KinomeScan)
T1 sequence (Q05655 whole entry): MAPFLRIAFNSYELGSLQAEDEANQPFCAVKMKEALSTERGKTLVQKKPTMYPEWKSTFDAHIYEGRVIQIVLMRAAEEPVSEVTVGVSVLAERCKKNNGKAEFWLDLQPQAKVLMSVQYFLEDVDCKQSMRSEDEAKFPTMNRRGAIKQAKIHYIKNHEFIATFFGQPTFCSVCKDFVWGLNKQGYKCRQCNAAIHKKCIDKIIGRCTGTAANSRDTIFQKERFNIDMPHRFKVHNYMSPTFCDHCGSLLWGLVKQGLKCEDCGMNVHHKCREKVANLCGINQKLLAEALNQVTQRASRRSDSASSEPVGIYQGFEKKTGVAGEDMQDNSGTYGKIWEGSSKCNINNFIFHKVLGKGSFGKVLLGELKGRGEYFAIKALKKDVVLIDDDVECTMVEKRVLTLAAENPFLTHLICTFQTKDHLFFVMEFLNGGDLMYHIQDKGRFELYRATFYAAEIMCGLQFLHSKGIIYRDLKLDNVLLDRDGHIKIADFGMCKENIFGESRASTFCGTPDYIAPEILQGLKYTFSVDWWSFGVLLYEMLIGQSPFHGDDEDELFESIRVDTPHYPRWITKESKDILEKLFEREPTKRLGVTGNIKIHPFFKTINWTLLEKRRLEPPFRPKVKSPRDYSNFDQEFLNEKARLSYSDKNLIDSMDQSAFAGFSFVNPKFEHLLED

KinomeScan kinase panel [2] = target: T2, KinomeScan kinase panel (Homo sapiens, UniProt Q9BXA7); settings: read-out: score (%)
T2 construct: purchased DiscoveRx (KinomeScan)
T2 sequence (Q9BXA7 1-367): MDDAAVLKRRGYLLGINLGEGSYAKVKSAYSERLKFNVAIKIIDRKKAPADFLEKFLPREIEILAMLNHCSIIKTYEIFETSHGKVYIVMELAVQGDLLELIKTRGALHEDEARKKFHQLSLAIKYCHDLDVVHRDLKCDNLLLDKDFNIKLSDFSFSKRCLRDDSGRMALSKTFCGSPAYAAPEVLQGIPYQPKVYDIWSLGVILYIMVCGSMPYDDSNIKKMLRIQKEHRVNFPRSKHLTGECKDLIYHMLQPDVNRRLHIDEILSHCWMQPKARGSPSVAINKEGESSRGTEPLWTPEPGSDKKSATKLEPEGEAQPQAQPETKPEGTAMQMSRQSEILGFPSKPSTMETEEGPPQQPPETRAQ

KinomeScan kinase panel [3] = target: T3, KinomeScan kinase panel (Homo sapiens, UniProt P45985); settings: MEK4, 10 µM; read-out: score (%)
T3 construct: purchased DiscoveRx (KinomeScan)
T3 sequence (P45985 1-399): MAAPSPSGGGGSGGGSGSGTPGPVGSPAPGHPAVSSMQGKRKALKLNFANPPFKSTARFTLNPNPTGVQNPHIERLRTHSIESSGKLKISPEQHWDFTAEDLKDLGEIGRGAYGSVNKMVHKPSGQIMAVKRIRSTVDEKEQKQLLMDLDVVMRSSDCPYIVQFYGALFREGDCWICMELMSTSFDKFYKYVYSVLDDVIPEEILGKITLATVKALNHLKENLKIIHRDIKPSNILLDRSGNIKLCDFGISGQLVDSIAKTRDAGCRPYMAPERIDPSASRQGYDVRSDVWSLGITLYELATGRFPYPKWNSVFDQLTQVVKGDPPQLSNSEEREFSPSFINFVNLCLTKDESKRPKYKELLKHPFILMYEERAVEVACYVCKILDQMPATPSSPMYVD

KinomeScan kinase panel [4] = target: T4, KinomeScan kinase panel (Homo sapiens, UniProt Q08345); settings: DDR1, 10 µM; read-out: score (%)
T4 construct: purchased DiscoveRx (KinomeScan)
T4 sequence (Q08345 19-913): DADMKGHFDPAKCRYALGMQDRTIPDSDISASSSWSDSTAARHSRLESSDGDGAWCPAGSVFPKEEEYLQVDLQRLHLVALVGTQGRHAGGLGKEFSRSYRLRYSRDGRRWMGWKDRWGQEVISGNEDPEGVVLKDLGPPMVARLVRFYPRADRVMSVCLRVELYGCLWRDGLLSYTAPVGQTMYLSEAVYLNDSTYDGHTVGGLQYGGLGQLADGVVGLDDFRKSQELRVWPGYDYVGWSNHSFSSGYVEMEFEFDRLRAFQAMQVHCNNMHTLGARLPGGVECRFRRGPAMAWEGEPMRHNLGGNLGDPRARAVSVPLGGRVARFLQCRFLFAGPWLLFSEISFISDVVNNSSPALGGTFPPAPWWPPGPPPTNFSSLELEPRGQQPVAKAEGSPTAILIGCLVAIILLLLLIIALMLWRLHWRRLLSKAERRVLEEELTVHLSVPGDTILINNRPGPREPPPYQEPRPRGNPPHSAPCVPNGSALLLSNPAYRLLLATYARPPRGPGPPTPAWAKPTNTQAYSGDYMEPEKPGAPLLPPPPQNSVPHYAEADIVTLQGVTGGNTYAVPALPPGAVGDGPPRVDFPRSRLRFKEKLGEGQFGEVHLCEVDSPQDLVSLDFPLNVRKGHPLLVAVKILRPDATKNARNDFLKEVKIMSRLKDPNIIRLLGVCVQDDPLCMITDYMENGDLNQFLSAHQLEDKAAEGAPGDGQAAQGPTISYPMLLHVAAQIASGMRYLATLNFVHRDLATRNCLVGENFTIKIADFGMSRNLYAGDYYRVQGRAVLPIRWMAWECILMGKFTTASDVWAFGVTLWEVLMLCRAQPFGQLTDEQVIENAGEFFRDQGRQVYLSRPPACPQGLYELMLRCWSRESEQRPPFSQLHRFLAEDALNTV

KinomeScan kinase panel [5] = target: T5, KinomeScan kinase panel (Homo sapiens, UniProt P36507); settings: MEK2, 10 µM; read-out: score (%)
T5 construct: purchased DiscoveRx (KinomeScan)
T5 sequence (P36507 whole entry): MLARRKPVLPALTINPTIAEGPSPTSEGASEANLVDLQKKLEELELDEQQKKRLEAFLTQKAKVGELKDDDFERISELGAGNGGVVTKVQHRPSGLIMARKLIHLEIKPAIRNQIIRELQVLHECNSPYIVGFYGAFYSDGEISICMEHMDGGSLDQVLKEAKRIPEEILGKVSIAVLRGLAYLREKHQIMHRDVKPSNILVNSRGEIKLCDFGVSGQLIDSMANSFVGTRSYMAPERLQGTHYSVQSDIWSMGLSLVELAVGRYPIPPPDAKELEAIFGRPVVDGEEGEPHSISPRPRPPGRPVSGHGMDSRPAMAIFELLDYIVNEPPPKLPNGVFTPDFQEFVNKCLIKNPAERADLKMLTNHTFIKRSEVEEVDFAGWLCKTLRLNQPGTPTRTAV

KinomeScan kinase panel [6] = target: T6, KinomeScan kinase panel (Homo sapiens, UniProt Q12866); settings: MERTK, 10 µM; read-out: score (%)
T6 construct: purchased DiscoveRx (KinomeScan)
T6 sequence (Q12866 21-999): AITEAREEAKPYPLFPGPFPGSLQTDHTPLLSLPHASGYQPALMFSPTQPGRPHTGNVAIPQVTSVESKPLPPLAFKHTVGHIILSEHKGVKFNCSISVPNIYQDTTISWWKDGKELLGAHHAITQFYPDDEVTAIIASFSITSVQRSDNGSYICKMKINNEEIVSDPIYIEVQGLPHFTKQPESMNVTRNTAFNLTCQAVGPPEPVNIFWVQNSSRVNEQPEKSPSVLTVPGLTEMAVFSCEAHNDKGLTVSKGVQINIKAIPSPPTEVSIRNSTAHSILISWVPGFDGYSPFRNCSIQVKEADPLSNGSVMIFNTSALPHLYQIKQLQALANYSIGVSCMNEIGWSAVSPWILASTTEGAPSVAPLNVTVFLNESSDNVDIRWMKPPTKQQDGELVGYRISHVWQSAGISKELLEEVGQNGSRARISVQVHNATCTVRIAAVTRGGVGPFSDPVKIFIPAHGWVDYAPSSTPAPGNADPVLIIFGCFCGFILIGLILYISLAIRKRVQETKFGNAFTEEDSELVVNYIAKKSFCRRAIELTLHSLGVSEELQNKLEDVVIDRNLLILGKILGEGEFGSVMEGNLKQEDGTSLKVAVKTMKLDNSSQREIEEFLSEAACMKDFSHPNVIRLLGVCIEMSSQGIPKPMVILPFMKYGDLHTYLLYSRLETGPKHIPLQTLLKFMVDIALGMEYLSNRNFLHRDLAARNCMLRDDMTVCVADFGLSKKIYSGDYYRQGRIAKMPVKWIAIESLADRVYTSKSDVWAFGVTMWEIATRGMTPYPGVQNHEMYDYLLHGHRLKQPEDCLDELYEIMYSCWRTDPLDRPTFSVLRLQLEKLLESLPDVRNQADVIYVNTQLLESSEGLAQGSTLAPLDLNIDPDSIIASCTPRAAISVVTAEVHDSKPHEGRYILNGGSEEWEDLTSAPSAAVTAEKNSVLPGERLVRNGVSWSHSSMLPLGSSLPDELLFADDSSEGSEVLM

**Q.** What does the source list for CCN1CCN(Cc2ccc(NC(=O)c3ccc(C)c(NC(=O)c4cncc(-c5cccs5)c4)c3)cc2C(F)(F)F)CC1 [ALW-II-41-27]?
**A.** remaining binding at 10 µM (KinomeScan kinase panel [1]; PRKCD): 1.2%; remaining binding at 10 µM (KinomeScan kinase panel [2]; kinase TSSK1B, 10 µM): > 30%; remaining binding at 10 µM (KinomeScan kinase panel [3]): > 30%; remaining binding at 10 µM (KinomeScan kinase panel [4]): 0.15%; remaining binding at 10 µM (KinomeScan kinase panel [5]): > 30%; remaining binding at 10 µM (KinomeScan kinase panel [6]): > 30%

**Q.** For CCN1CCN(Cc2ccc(NC(=O)c3ccc(C)c(/C=C/c4cnc5[nH]ccc5c4Cl)c3)cc2C(F)(F)F)CC1 [HG-6-63-01, (E)-3-(2-(4-chloro-1H-pyrrolo[2,3-b]pyridin-5-yl)vinyl)-N-(4-((4-ethylpiperazin-1-yl)methyl)-3-(trifluoromethyl)phenyl)-4-methylbenzamide], which remaining binding at 10 µM (KinomeScan kinase panel [1]; PRKCD) is on record?
**A.** > 30%

**Q.** And the remaining binding at 10 µM (KinomeScan kinase panel [2]; TSSK1, 10 µM)?
**A.** > 30%

**Q.** What about the remaining binding at 10 µM (KinomeScan kinase panel [3]) of the same compound?
**A.** > 30%

**Q.** And the remaining binding at 10 µM (KinomeScan kinase panel [4])?
**A.** 0.1%

**Q.** And the remaining binding at 10 µM (KinomeScan kinase panel [5])?
**A.** > 30%

**Q.** What about the remaining binding at 10 µM (KinomeScan kinase panel [6]) of the same compound?
**A.** > 30%

**Q.** With CCN1CCN(Cc2ccc(NC(=O)c3ccc(C)c(C#Cc4cccnc4)c3)cc2C(F)(F)F)CC1 [XMD15-44] as the compound, how does the remaining binding at 10 µM (KinomeScan kinase panel [1]; kinase PRKCD) read?
**A.** 39%

**Q.** And the remaining binding at 10 µM (KinomeScan kinase panel [2]; kinase TSSK1B, 10 µM)?
**A.** 92%

**Q.** What about the remaining binding at 10 µM (KinomeScan kinase panel [3]) of the same compound?
**A.** > 30%

**Q.** What about the remaining binding at 10 µM (KinomeScan kinase panel [4]) of the same compound?
**A.** 0.05%

**Q.** What about the remaining binding at 10 µM (KinomeScan kinase panel [5]) of the same compound?
**A.** > 30%

**Q.** And the remaining binding at 10 µM (KinomeScan kinase panel [6])?
**A.** 5.2%
